Source: US20130089603A1, “COMPOSITIONS AND METHODS FOR TREATING OBESITY AND OBESITY-RELATED CONDITIONS” (CHELATEXX LLC, priority 2006, published 2013)
Like-named read-outs stand apart in the source and are kept apart here.

Legend:
[1] = cited from earlier work
[2] = clinical trials on over 2800 patients for one or two years; cited from earlier work
pancreatic lipase = molecular target: T1, pancreatic lipase (Homo sapiens, UniProt P16233); experiment: in vitro testing of lipase inhibitor effectiveness in presence of activated charcoal; type: biochemical; details: 60 mg of orlistat with simethicone and 400 mg of porous activated charcoal (not enteric-coated)
T1 sequence (P16233 17-465): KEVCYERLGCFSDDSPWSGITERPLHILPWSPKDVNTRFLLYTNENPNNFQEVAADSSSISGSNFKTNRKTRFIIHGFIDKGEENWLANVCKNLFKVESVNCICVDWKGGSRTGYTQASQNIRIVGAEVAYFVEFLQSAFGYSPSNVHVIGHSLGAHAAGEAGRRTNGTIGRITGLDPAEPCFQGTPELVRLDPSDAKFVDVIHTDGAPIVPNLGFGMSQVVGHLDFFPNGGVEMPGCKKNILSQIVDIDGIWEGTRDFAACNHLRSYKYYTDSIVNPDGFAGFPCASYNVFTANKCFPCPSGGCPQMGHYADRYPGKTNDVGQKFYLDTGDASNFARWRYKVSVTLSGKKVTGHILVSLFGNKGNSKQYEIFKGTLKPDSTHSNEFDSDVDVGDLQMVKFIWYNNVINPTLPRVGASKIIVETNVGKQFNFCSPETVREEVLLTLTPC
Excerpt: While the embodiment described in the preceding paragraph has been proven effective in preventing Underwear Issues associated with lipase inhibitors, in vitro testing has shown that the effectiveness of the lipase inhibitor is decreased due to the fact that some of the lipase inhibitor is absorbed by the activated charcoal and is therefore not available for binding to pancreatic lipase. […] Rather, the pharmaceutical composition may be configured such that the lipase inhibitor and surfactant are released in the stomach, and the activated charcoal is not released until the small intestine. By doing so, the lipase inhibitor becomes irreversibly bound to the pancreatic lipase enzyme (about 25%) in the very first 10 centimeters of the small intestines (the duodenum), prior to release of the activated charcoal, thus ensuring that the activated charcoal will not interfere with the ability of the lipase inhibitor to inactivate pancreatic lipase. For this reason, the activated charcoal in some embodiments of the compositions and methods herein is enteric-coated in order to maintain the full efficacy of the lipase inhibitor. […] Therefore, by using an enteric coated porous activated charcoal, the small undigested fat, emulsified in the chyme by actions of the emulsifying agent, can be chelated by the released porous activated charcoal in the distal small bowel.

[3] = cited from earlier work; remark: listed apart in the source
[4] = cited from earlier work; remark: listed apart in the source

CCCCCCCCCCC[C@@H](C[C@@H]1OC(=O)[C@H]1CCCCCC)OC(=O)[C@H](CC(C)C)NC=O [orlistat, tetrahydrolipstatin]
ingested fat whose digestion and absorption is prevented ([1]; 60 mg dose of orlistat (OTC)): 25% | ingested fat whose digestion and absorption is prevented ([1]; 120 mg dose of orlistat (prescription)): 30% | ingested fat whose digestion and absorption is prevented ([1]; dose not stated): 25-35% | Abdominal pain/discomfort (upper gastrointestinal adverse event) [2]: 25.5% | Fatty/Oily stool (lower gastrointestinal adverse event) [2]: 26.0% | Fecal incontinence (lower gastrointestinal adverse event) [2]: 7.7% | Fecal urgency (lower gastrointestinal adverse event) [2]: 22.1% | Flatus - with discharge (lower gastrointestinal adverse event) [2]: 23.9% | Increased defecation (lower gastrointestinal adverse event) [2]: 10.8% | Nausea (upper gastrointestinal adverse event) [2]: 8.1% | Oily Evacuation (lower gastrointestinal adverse event) [2]: 11.9% | Oily Spotting (lower gastrointestinal adverse event) [2]: 26.6% | decrease in the effectiveness of the orlistat (pancreatic lipase): 30% | individuals reporting orlistat adverse events ([3]; normal (25 grams of fat/meal) US diet): over 90% | individuals reporting orlistat adverse events ([3]; rigid low fat diet): over 50% | study participants with adverse events ([4]; 60 mg of orlistat): 89.1% | study participants with adverse events ([4]; 120 mg of orlistat): 91.4%
